Measured values: US8859588B2, “Substituted N-heteroaryl bipyrrolidine carboxamides, preparation and therapeutic use thereof” (SANOFI, priority 2010, dated 2014)

molecular target: T1, rhesus (Macacca Mulatta) H3 receptor (Macaca mulatta, UniProt Q865E1); assay: Rhesus H3 radioligand binding assay ([3H]-Methylhistamine displacement, WGA SPA); design: species or system rhesus monkey (Macacca Mulatta); conditions: [3H]-Methylhistamine 2 nM; rhesus H3 membranes from Flp-In T-REx 293 cells; 25° C., 1 hour; Ki by Cheng-Prusoff equation
T1 construct: rhesus monkey (Macacca Mulatta) 445 amino acid H3 receptor; (Genbank #AY231164); expressed in transfected cells; host or cells: Flp-In T-REx 293 Cell Line (Invitrogen), pcDNA5/FRT/TO vector, induced with tetracycline; membrane preparation
Method: Rhesus H3 membranes were prepared from the Flp-In T-REx 293 Cell Line (Invitrogen) stably transfected with pcDNA5/FRT/TO (Invitrogen) containing the rhesus monkey (Macacca Mulatta) 445 amino acid H3 receptor. (Genbank #AY231164). Stably transfected cultures were amplified in tissue culture flasks by standard tissue culture methods and induced to express rhesus H3 by exposure to 500 ng/ml tetracycline (Cellgro) for 24 hours. After induction, cells were dissociated from flasks utilizing Cell Stripper (Cellgro). Cells were centrifuged (1K×g, 5 min) and pellet frozen in an ethanol-dry ice bath to disrupt cell membranes. Frozen cell pellet was re-suspended in 5 mM HEPES (pH 7.4, Invitrogen) at 10 ml/1000 cm2 of harvested cells. The cell suspension was drawn through an 18 gauge needle (2-3×) followed by a 23 gauge needle (2-3×) to further disrupt cell membranes. The cell suspension was centrifuged (40K×g, 30 min). Cell membrane pellet was re-suspended in 5 mM HEPES (pH 7.4, Invitrogen) at a final protein concentration of 10 mg/ml. Rhesus H3 membranes were stored under liquid nitrogen prior to use in [3H]-Methylhistamine and GTPγS radioligand binding assays.
Rhesus H3 radioligand binding assay was performed using rhesus H3 receptor membranes (prepared as described above), [3H]-Methylhistamine (Perkin Elmer) and WGA SPA beads (wheat germ agglutinin scintillation proximity assay) beads (Amersham). The assay was performed in 96-well Opti-Plates (Packard). Each reaction contained 50 μl rhesus H3 membranes (20-30 μg total protein), 50 μl WGA SPA beads (0.1 μg) and 50 μl of 83 Ci/mmol [^3H]-Methylhistamine (final concentration 2 nM) and 50 μl of tested compound. The compounds of this invention and/or vehicle were diluted with binding buffer from 10 mM DMSO stocks. Assay plates were sealed with TopSeal (Perkin Elmer) and mixed on shaker (25° C., 1 hour). Assay plates were read on TopCount scintillation counter (Packard). Results were analyzed by Hill transformation and Ki values were determined by Cheng-Prusoff equation.

T1 sequence (Q865E1 1-445): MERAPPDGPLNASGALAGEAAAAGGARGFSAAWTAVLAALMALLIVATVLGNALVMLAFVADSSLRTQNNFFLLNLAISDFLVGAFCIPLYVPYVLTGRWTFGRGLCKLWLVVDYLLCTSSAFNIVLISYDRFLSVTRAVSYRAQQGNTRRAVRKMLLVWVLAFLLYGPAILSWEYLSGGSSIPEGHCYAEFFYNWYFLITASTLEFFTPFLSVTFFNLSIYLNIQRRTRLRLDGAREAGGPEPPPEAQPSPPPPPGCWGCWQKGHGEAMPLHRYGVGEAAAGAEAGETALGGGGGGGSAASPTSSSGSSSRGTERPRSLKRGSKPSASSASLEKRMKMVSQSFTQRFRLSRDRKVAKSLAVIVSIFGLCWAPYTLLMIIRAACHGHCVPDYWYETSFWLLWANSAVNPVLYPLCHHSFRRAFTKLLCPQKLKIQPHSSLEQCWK

`Cc1nc(N2CC[C@H](N3CCC[C@@H]3C)C2)ccc1NC(=O)C1CCOCC1` [Example 1, Tetrahydro-pyran-4-carboxylic acid [2-methyl-6-((2S,3′S)-2-methyl-[1,3′]bipyrrolidinyl-1′-yl)-pyridin-3-yl]-amide] and `CC(=O)N1CCC(C(=O)Nc2ccc(N3CC[C@@H](N4CCC[C@@H]4C)C3)nc2C)CC1` [Example 8, 1-Acetyl-piperidine-4-carboxylic acid [2-methyl-6-((2S,3R)-2-methyl-[1,3′]bipyrrolidinyl-1′-yl)-pyridin-3-yl]-amide] are within 1.5-fold of each other in Ki: 0.0024 µM for the first, 0.00246 µM for the second.

`C[C@H]1CCCN1[C@H]1CCN(c2ccc(NC(=O)C3CCOCC3)nc2)C1` [Example 2, Tetrahydro-pyran-4-carboxylic acid [5-((2S,3′S)-2-methyl-[1,3′]bipyrrolidinyl-1′-yl)-pyridin-2-yl]-amide] and `Cc1nc(N2CC[C@@H](N3CCC[C@@H]3C)C2)ccc1NS(=O)(=O)C1CC1` [Example 13, Cyclopropanesulfonic acid [2-methyl-6-((2S,3′R)-2-methyl-[1,3′]bipyrrolidinyl-1′-yl)-pyridin-3-yl]-amide] are within 1.5-fold of each other in Ki: 0.027 µM for the first, 0.0371 µM for the second.

Going from `Cc1nc(N2CC[C@H](N3CCC[C@@H]3C)C2)ccc1NC(=O)c1cccc2ccccc12` [Example 3, Naphthalene-1-carboxylic acid [2-methyl-6-((2S,3′S)-2-methyl-[1,3′]bipyrrolidinyl-1′-yl)-pyridin-3-yl]-amide] to `Cc1nc(N2CC[C@H](N3CCC[C@@H]3C)C2)ccc1NC(=O)c1ccccc1` [Example 7, N-[2-Methyl-6-((2S,3′S)-2-methyl-[1,3′]bipyrrolidinyl-1′-yl)-pyridin-3-yl]-benzamide], the Ki rises from 0.00424 µM to 0.00809 µM (1.9-fold). The first binds more tightly here.

Going from `Cc1nc(N2CC[C@H](N3CCC[C@@H]3C)C2)ccc1NC(=O)Cc1ccccc1` [Example 4, N-[2-Methyl-6-((2S,3′S)-2-methyl-[1,3′]bipyrrolidinyl-1′-yl)-pyridin-3-yl]-2-phenyl-acetamide] to `Cc1nc(N2CC[C@@H](N3CCC[C@@H]3C)C2)ccc1NC(=O)c1cccs1` [Example 10, Thiophene-2-carboxylic acid [2-methyl-6-((2S,3′R)-2-methyl-[1,3′]bipyrrolidinyl-1′-yl)-pyridin-3-yl]-amide], the Ki rises from 0.0049 µM to 0.036 µM (7.3-fold).

`Cc1nc(N2CC[C@H](N3CCC[C@@H]3C)C2)ccc1NS(=O)(=O)C1CCCCC1` [Example 5, Cyclohexanesulfonic acid [2-methyl-6-((2S,3′S)-2-methyl-[1,3′]bipyrrolidinyl-1′-yl)-pyridin-3-yl]-amide] and `Cc1nc(N2CC[C@@H](N3CCC[C@@H]3C)C2)ccc1NS(=O)(=O)c1ccc(F)cc1` [Example 12, 4-Fluoro-N-[2-methyl-6-((2S,3′R)-2-methyl-[1,3′]bipyrrolidinyl-1′-yl)-pyridin-3-yl]-benzenesulfonamide] are within 1.5-fold of each other in Ki: 0.0263 µM for the first, 0.0296 µM for the second.

First: Cc1nc(N2CC[C@H](N3CCC[C@@H]3C)C2)ccc1NS(=O)(=O)c1ccc(F)c(F)c1 [Example 6, 3,4-Difluoro-N-[2-methyl-6-((2S,3′S)-2-methyl-[1,3′]bipyrrolidinyl-1′-yl)-pyridin-3-yl]-benzenesulfonamide]
Second: Cc1ccc(F)cc1C(=O)Nc1ccc(N2CC[C@@H](N3CCC[C@@H]3C)C2)nc1C [Example 9, 5-Fluoro-2-methyl-N-[2-methyl-6-((2S,3′R)-2-methyl-[1,3′]bipyrrolidinyl-1′-yl)-pyridin-3-yl]-benzamide]
The Ki of the first is 78-fold lower: 0.00251 µM for the first, 0.195 µM for the second.

`Cc1nc(N2CC[C@@H](N3CCC[C@@H]3C)C2)ccc1NC(=O)c1c(C)noc1C` [Example 11, 3,5-Dimethyl-isoxazole-4-carboxylic acid [2-methyl-6-((2S,3′R)-2-methyl-[1,3′]bipyrrolidinyl-1′-yl)-pyridin-3-yl]-amide] showed a Ki of 0.084 µM.
